In PubChem BioAssay AID1963982 (Molecular Pharmacology Branch, DTP, NCI, 2024):
pIC50: −log10 of the molar value.

Test system: 313798-341-R-J2-PDC spheroids, viability
Assay: Anticancer human tumor 313798-341-R-J2-PDC patient-derived cervical squamous cell carcinoma cell line growth inhibition [PI3K]
Settings: spheroids with HUVEC and MSC; for pIC50: curve of first compound; for viability, T/C: stronger effect = lower value
Procedure, shortened: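 High-throughput combination screen: PI3K inhibitors crossed with targeted small molecules on complex spheroids of tumor cells, HUVEC and MSCs at 37 degrees C, 5% CO2. Top concentration was at or near clinical Cmax (otherwise 10 microM), with half-log decrements.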

[1] = second compound 0.0316 µM, first compound 0.0316 µM
[2] = second compound 0.0316 µM, first compound 0.1 µM
[3] = second compound 0.1 µM, first compound 0.0316 µM
[4] = second compound 0.1 µM, first compound 0.1 µM
[5] = second compound 0.316 µM, first compound 0.0316 µM
[6] = second compound 0.316 µM, first compound 0.1 µM
[7] = second compound 1 µM, first compound 0.0316 µM
[8] = second compound 1 µM, first compound 0.1 µM
[9] = second compound 3.16 µM, first compound 0.0316 µM
[10] = second compound 3.16 µM, first compound 0.1 µM
[11] = second compound 10 µM, first compound 0.0316 µM
[12] = second compound 10 µM, first compound 0.1 µM
[13] = second compound 0.0316 µM, first compound 0.316 µM
[14] = second compound 0.0316 µM, first compound 1 µM
[15] = second compound 0.0316 µM, first compound 3.16 µM
[16] = second compound 0.0316 µM, first compound 10 µM
[17] = second compound 0.1 µM, first compound 0.316 µM
[18] = second compound 0.1 µM, first compound 1 µM
[19] = second compound 0.1 µM, first compound 3.16 µM
[20] = second compound 0.1 µM, first compound 10 µM
[21] = second compound 0.316 µM, first compound 0.316 µM
[22] = second compound 0.316 µM, first compound 1 µM
[23] = second compound 0.316 µM, first compound 3.16 µM
[24] = second compound 0.316 µM, first compound 10 µM
[25] = second compound 1 µM, first compound 0.316 µM
[26] = second compound 1 µM, first compound 1 µM
[27] = second compound 1 µM, first compound 3.16 µM
[28] = second compound 1 µM, first compound 10 µM
[29] = second compound 3.16 µM, first compound 0.316 µM
[30] = second compound 3.16 µM, first compound 1 µM
[31] = second compound 3.16 µM, first compound 3.16 µM
[32] = second compound 3.16 µM, first compound 10 µM
[33] = second compound 10 µM, first compound 0.316 µM
[34] = second compound 10 µM, first compound 1 µM
[35] = second compound 10 µM, first compound 3.16 µM
[36] = second compound 10 µM, first compound 10 µM
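Further: spheroids exposed to compounds for seven days.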
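Wherever viability, T/C is given: 100% = DMSO vehicle control viability.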

For `CC(C)n1nc(-c2ccc3oc(N)nc3c2)c2c(N)ncnc21` + CC(Nc1ncnc2nc[nH]c12)c1cc2cccc(Cl)c2c(=O)n1-c1ccccc1, the pIC50 (second compound 0.0316 µM) was 7.23, the pIC50 (second compound 0.1 µM) was 7.19 and the pIC50 (second compound 0.316 µM) was 7.19. For the same compound, the pIC50 (second compound 1 µM) was 7.30, the pIC50 (second compound 3.16 µM) was 7.26 and the pIC50 (second compound 10 µM) was 7.60. The viability, T/C (second compound 0.0316 µM, first compound 0.000316 µM) was 102%, the viability, T/C (second compound 0.0316 µM, first compound 0.001 µM) was 96.8% and the viability, T/C (second compound 0.0316 µM, first compound 0.00316 µM) was 108%. The viability, T/C (second compound 0.0316 µM, first compound 0.01 µM) was 96.5%, the viability, T/C [1] was 65.7% and the viability, T/C [2] was 36.6%. The viability, T/C (second compound 0.1 µM, first compound 0.000316 µM) was 109%, the viability, T/C (second compound 0.1 µM, first compound 0.001 µM) was 92.9% and the viability, T/C (second compound 0.1 µM, first compound 0.00316 µM) was 97%. It also gave a viability, T/C (second compound 0.1 µM, first compound 0.01 µM) of 101%, a viability, T/C [3] of 67.9% and a viability, T/C [4] of 39.1%. It also gave a viability, T/C (second compound 0.316 µM, first compound 0.000316 µM) of 101%, a viability, T/C (second compound 0.316 µM, first compound 0.001 µM) of 94.2% and a viability, T/C (second compound 0.316 µM, first compound 0.00316 µM) of 100%. It also gave a viability, T/C (second compound 0.316 µM, first compound 0.01 µM) of 97.4%, a viability, T/C [5] of 66.4% and a viability, T/C [6] of 40.2%. The viability, T/C (second compound 1 µM, first compound 0.000316 µM) was 100%, the viability, T/C (second compound 1 µM, first compound 0.001 µM) was 91.5% and the viability, T/C (second compound 1 µM, first compound 0.00316 µM) was 99.8%. It also gave a viability, T/C (second compound 1 µM, first compound 0.01 µM) of 89.7%, a viability, T/C [7] of 58.8% and a viability, T/C [8] of 36.8%. The viability, T/C (second compound 3.16 µM, first compound 0.000316 µM) was 117%, the viability, T/C (second compound 3.16 µM, first compound 0.001 µM) was 94.2% and the viability, T/C (second compound 3.16 µM, first compound 0.00316 µM) was 93.7%. The viability, T/C (second compound 3.16 µM, first compound 0.01 µM) was 82.2%, the viability, T/C [9] was 55.5% and the viability, T/C [10] was 40.6%. For the same compound, the viability, T/C (second compound 10 µM, first compound 0.000316 µM) was 87.6%, the viability, T/C (second compound 10 µM, first compound 0.001 µM) was 91.9% and the viability, T/C (second compound 10 µM, first compound 0.00316 µM) was 78.5%. It also gave a viability, T/C (second compound 10 µM, first compound 0.01 µM) of 57.1%, a viability, T/C [11] of 51.9% and a viability, T/C [12] of 27.1%.
For `CC(C)NCC(C(=O)N1CCN(c2ncnc3c2C(C)CC3O)CC1)c1ccc(Cl)cc1` (stereo not drawn) + Cc1nc(NC(=O)N2CCCC2C(N)=O)sc1-c1ccnc(C(C)(C)C(F)(F)F)c1, the pIC50 (second compound 0.0316 µM) was 5.68, the pIC50 (second compound 0.1 µM) was 5.56 and the pIC50 (second compound 0.316 µM) was 5.79. The pIC50 (second compound 1 µM) was 5.85, the pIC50 (second compound 3.16 µM) was 6.46 and the pIC50 (second compound 10 µM) was over 7.50. For the same compound, the viability, T/C [1] was 118%, the viability, T/C [2] was 100% and the viability, T/C [13] was 88.7%. For the same compound, the viability, T/C [14] was 65.7%, the viability, T/C [15] was 37.8% and the viability, T/C [16] was 32.4%. The viability, T/C [3] was 107%, the viability, T/C [4] was 102% and the viability, T/C [17] was 87.8%. The viability, T/C [18] was 72.4%, the viability, T/C [19] was 45.3% and the viability, T/C [20] was 33.6%. It also gave a viability, T/C [5] of 101%, a viability, T/C [6] of 93% and a viability, T/C [21] of 94%. The viability, T/C [22] was 58.5%, the viability, T/C [23] was 39.9% and the viability, T/C [24] was 32.7%. It also gave a viability, T/C [7] of 84.9%, a viability, T/C [8] of 97.4% and a viability, T/C [25] of 86.2%. For the same compound, the viability, T/C [26] was 55.3%, the viability, T/C [27] was 39.2% and the viability, T/C [28] was 30.3%. The viability, T/C [9] was 65.9%, the viability, T/C [10] was 58.6% and the viability, T/C [29] was 49.4%. It also gave a viability, T/C [30] of 45.8%, a viability, T/C [31] of 32.7% and a viability, T/C [32] of 30.2%. It also gave a viability, T/C [11] of 34%, a viability, T/C [12] of 33.5% and a viability, T/C [33] of 34.6%. It also gave a viability, T/C [34] of 34.3%, a viability, T/C [35] of 27.8% and a viability, T/C [36] of 22.3%.
`CC1(C)CCC(CN2CCN(c3ccc(C(=O)NS(=O)(=O)c4ccc(NCC5CCOCC5)c([N+](=O)[O-])c4)c(Oc4cnc5[nH]ccc5c4)c3)CC2)=C(c2ccc(Cl)cc2)C1` + Cc1nc(NC(=O)N2CCCC2C(N)=O)sc1-c1ccnc(C(C)(C)C(F)(F)F)c1 showed a pIC50 (second compound 0.0316 µM) of 5.24, a pIC50 (second compound 0.1 µM) of 5.24 and a pIC50 (second compound 0.316 µM) of 5.27. The pIC50 (second compound 1 µM) was 5.37, the pIC50 (second compound 3.16 µM) was 5.77 and the pIC50 (second compound 10 µM) was over 7.50. It also gave a viability, T/C [1] of 102%, a viability, T/C [2] of 115% and a viability, T/C [13] of 104%. It also gave a viability, T/C [14] of 101%, a viability, T/C [15] of 84.4% and a viability, T/C [16] of 19.3%. The viability, T/C [3] was 115%, the viability, T/C [4] was 101% and the viability, T/C [17] was 110%. It also gave a viability, T/C [18] of 97.9%, a viability, T/C [19] of 85% and a viability, T/C [20] of 19.8%. It also gave a viability, T/C [5] of 111%, a viability, T/C [6] of 103% and a viability, T/C [21] of 112%. For the same compound, the viability, T/C [22] was 107%, the viability, T/C [23] was 75.7% and the viability, T/C [24] was 18.7%. The viability, T/C [7] was 91.5%, the viability, T/C [8] was 104% and the viability, T/C [25] was 97.2%. For the same compound, the viability, T/C [26] was 90.7%, the viability, T/C [27] was 60.8% and the viability, T/C [28] was 17.9%. The viability, T/C [9] was 69.3%, the viability, T/C [10] was 66.7% and the viability, T/C [29] was 63.9%. The viability, T/C [30] was 59.3%, the viability, T/C [31] was 40.2% and the viability, T/C [32] was 18.3%. It also gave a viability, T/C [11] of 38.6%, a viability, T/C [12] of 34.1% and a viability, T/C [33] of 38.1%. It also gave a viability, T/C [34] of 35.7%, a viability, T/C [35] of 33% and a viability, T/C [36] of 15.1%.
For `CC(C)NCC(C(=O)N1CCN(c2ncnc3c2C(C)CC3O)CC1)c1ccc(Cl)cc1` (stereo not drawn), the viability, T/C (compound 0.0316 µM) was 97.6% [middle of 4 runs], the viability, T/C (compound 0.1 µM) was 96.4% [middle of 4 runs] and the viability, T/C (compound 0.316 µM) was 92.8% [middle of 4 runs]. For the same compound, the viability, T/C (compound 1 µM) was 65.8% [middle of 4 runs], the viability, T/C (compound 3.16 µM) was 41.6% [middle of 4 runs] and the viability, T/C (compound 10 µM) was 31.5% [middle of 4 runs]. For the same compound, the IC50 (curve of compound) was 2 µM [middle of 4 runs].
